In general, DC50 refers to the midpoint of the concentration-degradation curve.

This test can be described thus: Western blot analysis for "B" compounds. In kind it is cell-based. The following applies: read-out: Traditional Western Degradation Potency (DC50). Summed up: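 Target protein levels given as relative mean band intensity over GAPDH from scanned immunoblots. Lysates of treated cells in RIPA buffer, equalized by BCA, separated on 10% gels and transferred to PVDF.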
For `CN(C1CCC(C(=O)N2Cc3cc4c(cc3C2)C(=O)N(C2CCC(=O)NC2=O)C4)CC1)C1CCN(c2ccc([C@@H]3c4ccc(O)cc4CC[C@@H]3c3ccccc3)cc2)CC1` (stereo partly drawn) [Compound B201, 3-(6-(4-((1-(4-((1R,2S)-6-hydroxy-2-phenyl-1,2,3,4-tetrahydronaphthalen-1-yl)phenyl)piperidin-4-yl)(methyl)amino)cyclohexane-1-carbonyl)-1-oxo-3,5,6,7-tetrahydropyrrolo[3,4-f]isoindol-2(1H)-yl)piperidine-2,6-dione], the half-maximal degradation concentration (DC50) was 10 to 100 nM.

Regarding `O=C1CCC(N2Cc3cc4c(cc3C2=O)CN(C(=O)C2CCC(N3CC(Oc5ccc([C@@H]6c7ccc(O)cc7CC[C@@H]6c6ccccc6)cc5)C3)CC2)C4)C(=O)N1` (stereo partly drawn) [Compound B107, 3-(6-((1S,4s)-4-(3-(4-((1R,2S)-6-hydroxy-2-phenyl-1,2,3,4-tetrahydronaphthalen-1-yl)phenoxy)azetidin-1-yl)cyclohexane-1-carbonyl)-1-oxo-3,5,6,7-tetrahydropyrrolo[3,4-f]isoindol-2(1H)-yl)piperidine-2,6-dione], the DC50 was above 100 nM.

As for `O=C1CCC(N2C(=O)c3cc4c(cc3C2=O)CN([C@H]2CC[C@@H](C(=O)N3CC(Oc5ccc([C@@H]6c7ccc(O)cc7CC[C@@H]6c6ccccc6)cc5)C3)CC2)C4)C(=O)N1` (stereo partly drawn) [Compound B123, 2-(2,6-dioxopiperidin-3-yl)-6-((1R,4s)-4-(3-(4-((1R,2S)-6-hydroxy-2-phenyl-1,2,3,4-tetrahydronaphthalen-1-yl)phenoxy)azetidine-1-carbonyl)cyclohexyl)-6,7-dihydropyrrolo[3,4-f]isoindole-1,3(2H,5H)-dione], the 50% degradation concentration (DC50) is below 10 nM.

With `O=C1CCC(N2C(=O)c3cc4c(cc3C2=O)CN(CC2CCN(CC3CCN(c5ccc([C@@H]6c7ccc(O)cc7CC[C@@H]6c6ccccc6)cc5)CC3)CC2)C4)C(=O)N1` (stereo partly drawn) [Compound B273, 2-(2,6-dioxopiperidin-3-yl)-6-((1-((1-(4-((1R,2S)-6-hydroxy-2-phenyl-1,2,3,4-tetrahydronaphthalen-1-yl)phenyl)piperidin-4-yl)methyl)piperidin-4-yl)methyl)-6,7-dihydropyrrolo[3,4-f]isoindole-1,3(2H,5H)-dione], the 50% degradation concentration (DC50) was above 100 nM.

For `O=C1CCC(N2C(=O)c3cc4c(cc3C2=O)CN([C@H]2CC[C@H](NC3CN(c5ccc([C@@H]6c7ccc(O)cc7CC[C@@H]6c6ccccc6)cc5)C3)CC2)C4)C(=O)N1` (stereo partly drawn) [Compound B103, 2-(2,6-dioxopiperidin-3-yl)-6-((1R,4r)-4-((1-(4-((1R,2S)-6-hydroxy-2-phenyl-1,2,3,4-tctrahydronaphthalen-1-yl)phenyl)azetidin-3-yl)amino)cyclohexyl)-6,7-dihydropyrrolo[3,4-f]isoindole-1,3(2H,5H)-dione], the DC50 was above 100 nM.

`O=C1CCC(N2C(=O)c3cc4c(cc3C2=O)CN(CC2CN(C(=O)C3CCN(c5ccc([C@@H]6c7ccc(O)cc7CC[C@@H]6c6ccccc6)cc5)CC3)C2)C4)C(=O)N1` (mixture of isomers) [Compound B10, 2-(2,6-dioxopiperidin-3-yl)-6-((1-(1-(4-((1R,2S)-6-hydroxy-2-phenyl-1,2,3,4-tetrahydronaphthalen-1-yl)phenyl)piperidine-4-carbonyl)azetidin-3-yl)methyl)-6,7-dihydropyrrolo[3,4-f]isoindole-1,3(2H,5H)-dione]: the 50% degradation concentration (DC50) lay within 10 to 100 nM.

As to `CN(C1CCC(N2Cc3cc4c(cc3C2)C(=O)N(C2CCC(=O)NC2=O)C4=O)CC1)C1CCN(c2ccc([C@@H]3c4ccc(O)cc4CC[C@@H]3c3ccccc3)cc2)CC1` (stereo partly drawn) [Compound B88, 2-(2,6-dioxopiperidin-3-yl)-6-(4-((1-(4-((1R,2S)-6-hydroxy-2-phenyl-1,2,3,4-tetrahydronaphthalen-1-yl)phenyl)piperidin-4-yl)(methyl)amino)cyclohexyl)-6,7-dihydropyrrolo[3,4-f]isoindole-1,3(2H,5H)-dione], the DC50 was above 100 nM.

Consider `O=C1CCC(N2C(=O)c3cc4c(cc3C2=O)CN(CC(=O)N2CCC3(CC2)CCN(c2ccc([C@@H]5c6ccc(O)cc6CC[C@@H]5c5ccc(F)cc5)cc2)CC3)CC4)C(=O)N1` (mixture of isomers) [Compound B193, 2-(2,6-dioxopiperidin-3-yl)-6-(2-(9-(4-((1R,2S)-2-(4-fluorophenyl)-6-hydroxy-1,2,3,4-tetrahydronaphthalen-1-yl)phenyl)-3,9-diazaspiro[5.5]undecan-3-yl)-2-oxoethyl)-5,6,7,8-tetrahydro-1H-pyrrolo[3,4-g]isoquinoline-1,3(2H)-dione], for which the DC50 is 10 to 100 nM.

Turning to `O=C1CCC(N2C(=O)c3cc4c(cc3C2=O)CN(c2ccc(CN3CC(Oc5ccc([C@@H]6c7ccc(O)cc7CC[C@@H]6c6ccccc6)cc5)C3)cn2)C4)C(=O)N1` (stereo partly drawn) [Compound B90, 2-(2,6-dioxopiperidin-3-yl)-6-(5-((3-(4-((1R,2S)-6-hydroxy-2-phenyl-1,2,3,4-tetrahydronaphthalen-1-yl)phenoxy)azetidin-1-yl)methyl)pyridin-2-yl)-6,7-dihydropyrrolo[3,4-f]isoindole-1,3(2H,5H)-dione], the DC50 was above 100 nM.

Consider `O=C1CCC(N2C(=O)c3cc4c(cc3C2=O)CN(CC(=O)N2CCC3(CC2)CCN(c2ccc([C@@H]5c6ccc(O)cc6CC[C@@H]5c5ccc(F)cc5)cn2)CC3)C4)C(=O)N1` (stereo partly drawn) [Compound B54, 2-(2,6-dioxopiperidin-3-yl)-6-(2-(9-(5-((1S,2S)-2-(4-fluorophenyl)-6-hydroxy-1,2,3,4-tetrahydronaphthalen-1-yl)pyridin-2-yl)-3,9-diazaspiro[5.5]undecan-3-yl)-2-oxoethyl)-6,7-dihydropyrrolo[3,4-f]isoindole-1,3(2H,5H)-dione], for which the half-maximal degradation concentration (DC50) was above 100 nM.

`O=C1CCC(N2C(=O)c3cc4c(cc3C2=O)CN(CC(=O)N2CC3(C2)CN(c2ccc([C@@H]5c6ccc(O)cc6CC[C@@H]5c5ccc(F)cc5)cc2)C3)C4)C(=O)N1` (mixture of isomers) [Compound B188, 2-(2,6-dioxopipcridin-3-yl)-6-(2-(6-(4-((1R,2S)-2-(4-fluorophenyl)-6-hydroxy-1,2,3,4-tetrahydronaphthalen-1-yl)phenyl)-2,6-diazaspiro[3.3]heptan-2-yl)-2-oxoethyl)-6,7-dihydropyrrolo[3,4-f]isoindole-1,3(2H,5H)-dione]: the DC50 was in the range of 10 to 100 nM.

With `O=C1CCC(N2C(=O)c3cc4c(cc3C2=O)CN(CC(=O)N2CCC(Oc3ccc([C@@H]5c6ccc(O)cc6CC[C@@H]5c5ccccc5)cc3)CC2)C4)C(=O)N1` (stereo partly drawn) [Compound B284, 2-(2,6-dioxopiperidin-3-yl)-6-(2-(4-(4-((1R,2S)-6-hydroxy-2-phenyl-1,2,3,4-tetrahydronaphthalen-1-yl)phenoxy)piperidin-1-yl)-2-oxoethyl)-6,7-dihydropyrrolo[3,4-f]isoindole-1,3(2H,5H)-dione], the DC50 is above 100 nM.

`O=C1CCC(N2C(=O)c3cc4c(cc3C2=O)CN(CC(=O)N2CCC3(CC2)CCN(c2ccc([C@H]5c6ccc(O)cc6CC[C@H]5c5ccccc5)cn2)CC3)C4)C(=O)N1` (mixture of isomers) [Compound B81, 2-(2,6-dioxopiperidin-3-yl)-6-(2-(9-(5-((1R,2R)-6-hydroxy-2-phenyl-1,2,3,4-tetrahydronaphthalen-1-yl)pyridin-2-yl)-3,9-diazaspiro[5.5]undecan-3-yl)-2-oxoethyl)-6,7-dihydropyrrolo[3,4-f]isoindole-1,3(2H,5H)-dione]: the 50% degradation concentration (DC50) is above 100 nM.

The values above are taken from patent US20260028354A1, “TETRAHYDRONAPHTHALENE DERIVATIVES AS ESTROGEN RECEPTOR DEGRADERS” (REGENT OF THE UNIVERSITY OF MICHIGAN, priority 2022, published 2026).
